The structures appear in SMILES notation. Where a name gives a salt, the structure may show the parent alone.

T1 sequence (P08546 whole entry): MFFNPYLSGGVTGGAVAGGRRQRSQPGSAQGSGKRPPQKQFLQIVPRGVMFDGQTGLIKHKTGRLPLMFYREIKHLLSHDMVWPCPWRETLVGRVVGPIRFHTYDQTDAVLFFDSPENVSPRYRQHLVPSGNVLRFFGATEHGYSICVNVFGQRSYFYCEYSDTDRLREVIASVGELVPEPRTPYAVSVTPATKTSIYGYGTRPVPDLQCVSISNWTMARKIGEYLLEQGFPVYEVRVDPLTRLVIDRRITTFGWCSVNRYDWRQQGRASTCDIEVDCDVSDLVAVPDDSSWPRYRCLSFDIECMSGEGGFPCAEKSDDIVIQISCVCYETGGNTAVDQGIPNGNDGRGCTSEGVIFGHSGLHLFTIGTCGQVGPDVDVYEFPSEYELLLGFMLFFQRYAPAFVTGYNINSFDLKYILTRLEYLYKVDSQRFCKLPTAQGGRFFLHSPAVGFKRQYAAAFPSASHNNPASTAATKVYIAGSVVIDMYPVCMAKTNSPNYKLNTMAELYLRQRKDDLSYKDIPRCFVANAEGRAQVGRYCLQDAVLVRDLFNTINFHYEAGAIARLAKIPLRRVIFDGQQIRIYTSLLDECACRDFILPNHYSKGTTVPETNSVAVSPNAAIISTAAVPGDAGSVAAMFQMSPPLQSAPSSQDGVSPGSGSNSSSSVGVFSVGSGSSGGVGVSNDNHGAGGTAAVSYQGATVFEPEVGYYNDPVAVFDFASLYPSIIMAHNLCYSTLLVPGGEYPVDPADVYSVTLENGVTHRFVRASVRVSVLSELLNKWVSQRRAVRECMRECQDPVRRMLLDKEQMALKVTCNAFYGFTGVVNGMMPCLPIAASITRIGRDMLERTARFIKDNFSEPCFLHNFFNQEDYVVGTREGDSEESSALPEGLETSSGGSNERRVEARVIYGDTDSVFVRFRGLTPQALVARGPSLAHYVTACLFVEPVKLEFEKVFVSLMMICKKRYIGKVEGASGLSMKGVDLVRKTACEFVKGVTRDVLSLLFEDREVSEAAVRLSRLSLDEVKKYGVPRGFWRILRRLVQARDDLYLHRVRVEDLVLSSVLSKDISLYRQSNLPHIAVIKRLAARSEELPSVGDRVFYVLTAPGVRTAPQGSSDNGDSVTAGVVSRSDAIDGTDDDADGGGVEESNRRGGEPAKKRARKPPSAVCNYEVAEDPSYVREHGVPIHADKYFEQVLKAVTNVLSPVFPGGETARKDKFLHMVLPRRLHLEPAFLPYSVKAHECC

This assay concerns the target T1, CMV polymerase (Human cytomegalovirus, UniProt P08546).
T1 construct: made in house; host or cells: recombinant baculovirus-infected SF-9 cells
Briefly: HCMV polymerase assay, scintillation proximity assay (SPA), modified version. It counts as biochemical. The conditions noted are these: modified HCMV polymerase SPA assay: compounds diluted in 100% DMSO, 4.5 mM DTT in polymerase buffer, different lot of CMV polymerase; read-out: CMV polymerase IC50. On the procedure:
The HCMV polymerase assay is performed using a scintillation proximity assay (SPA) as described in several references, such as N. D. Cook, et al., Pharmaceutical Manufacturing International, pages 49-53 (1992); K. Takeuchi, Laboratory Practice, September issue (1992); U.S. Pat. No. 4,568,649 (1986); which are incorporated by reference herein. Reactions are performed in 96-well plates. The assay is conducted in 100 μl volume with 5.4 mM HEPES (pH 7.5), 11.7 mM KCl, 4.5 mM MgCl2, 0.36 mg/ml BSA, and 90 nM ^3H-dTTP. Assays are run with and without CHAPS, (3-[(3-Cholamidopropyl)-dimethylammonio]-1-propane-sulfonate) at a final concentration of 2 mM. HCMV polymerase is diluted in enzyme dilution buffer containing 50% glycerol, 250 mM NaCl, 10 mM HEPES (pH 7.5), 100 μg/ml BSA, and 0.01% sodium azide. The HCMV polymerase, which is expressed in recombinant baculovirus-infected SF-9 cells and purified according to literature procedures, is added at 10% (or 10 μl) of the final reaction volume, i.e., 100 μl. Compounds are diluted in 50% DMSO and 10 μl are added to each well. Control wells contain an equivalent concentration of DMSO. Unless noted otherwise, reactions are initiated via the addition of 6 nM biotinylated poly(dA)-oligo(dT) template/primer to reaction mixtures containing the enzyme, substrate, and compounds of interest. Plates are incubated in a 25 C. or 37 C. H2O bath and terminated via the addition of 40 μl/reaction of 0.5 M EDTA (pH 8) per well. Reactions are terminated within the time-frame during which substrate incorporation is linear and varied depending upon the enzyme and conditions used, i.e., 30 min. for HCMV polymerase. Ten μl of streptavidin-SPA beads (20 mg/ml in PBS/10% glycerol) are added following termination of the reaction. Plates are incubated 10 min. at 37 C., then equilibrated to room temperature, and counted on a Packard Topcount. Linear regressions are performed and IC50's are calculated using computer software.
A modified version of the above HCMV polymerase assay is performed as described above, but with the following changes: Compounds are diluted in 100% DMSO until final dilution into assay buffer. In the previous assay, compounds are diluted in 50% DMSO. 4.5 mM dithiotherotol (DTT) is added to the polymerase buffer.
In general terms: SPA uses beads or plates that emit light when radiolabelled molecules are held near them.
`O=C(NCc1ccc(Cl)cc1)c1cn2c3c(cc(CCCO)cc3c1=O)OCC2(CO)CO` [Example 32, N-(4-Chlorobenzyl)-3,3-bis(hydroxymethyl)-9-(3-hydroxypropyl)-7-oxo-2,3-dihydro-7H-[1,4]oxazino[2,3,4-ij]quinoline-6-carboxamide]: the IC50 (commonly the concentration that inhibits the measured activity by half) is 3000 nM.

Turning to `O=C(NCc1ccc(Cl)cc1)c1cn2c3c(cc(CN4CCOCC4)cc3c1=O)OC(c1ccccc1O)C2` (centres unmarked) [Example 68, N-(4-Chlorobenzyl)-2-(2-hydroxyphenyl)-9-(morpholin-4-ylmethyl)-7-oxo-2,3-dihydro-7H-[1,4]oxazino[2,3,4-ij]quinoline-6-carboxamide], the IC50 was found to be 820 nM. Then `O=C(NCc1ccc(Cl)cc1)c1cn2c3c(cc(CN4CCOCC4)cc3c1=O)OC(CSCCO)C2` (centres unmarked) [Example 16, N-(4-Chlorobenzyl)-2-{[(2-hydroxyethyl)sulfanyl]methyl}-9-(4-morpholinylmethyl)-7-oxo-2,3-dihydro-7H-[1,4]oxazino[2,3,4-ij]quinoline-6-carboxamide], with 420 nM; and `O=C(NCc1ccc(Cl)cc1)c1cn2c3c(cc(CN4CCOCC4)cc3c1=O)OC(CNCc1cccnc1)C2` (single isomer, unassigned) [Example 23, N-(4-Chlorobenzyl)-9-(4-morpholinylmethyl)-7-oxo-2-(R or S)-{[3-pyridinylmethyl)amino]methyl}-2,3-dihydro-7H-[1,4]oxazino[2,3,4-ij]quinoline-6-carboxamide], with 1100 nM.

On to `CN(CCS(=O)(=O)O)C(=O)CCCCCCC(=O)OCC1Cn2cc(C(=O)NCc3ccc(Cl)cc3)c(=O)c3cc(CN4CCOCC4)cc(c32)O1` (centres unmarked) [Example 25, 2-[(8-{[6-{[(4-Chlorobenzyl)amino]carbonyl}-9-(4-morpholinylmethyl)-7-oxo-2,3-dihydro-7H-[1,4]oxazino[2,3,4-ij]quinolin-2-yl]methoxy}-8-oxooctanoyl)(methyl)amino]ethanesulfonic acid sodium salt], for which the IC50 is 1300 nM. To `Cn1ccnc1SCC1Cn2cc(C(=O)NCc3ccc(Cl)cc3)c(=O)c3cc(CN4CCOCC4)cc(c32)O1` (centres unmarked) [Example 17] belongs 270 nM; to `O=C(NCc1ccc(Cl)cc1)c1cn2c3c(cc(CN4CCOCC4)cc3c1=O)OC(c1ccncc1)C2` (centres unmarked) [Example 35, N-(4-Chlorobenzyl)-9-(4-morpholinylmethyl)-7-oxo-2-(4-pyridinyl)-2,3-dihydro-7H-[1,4]oxazino[2,3,4-ij]quinoline-6-carboxamide], 610 nM.

With `O=C(NCc1ccc(Cl)cc1)c1cn2c3c(cc(CN4CCOCC4)cc3c1=O)OC(c1ccccc1)C2` (centres unmarked) [Example 27, N-(4-Chlorobenzyl)-9-(4-morpholinylmethyl)-7-oxo-2-phenyl-2,3-dihydro-7H-[1,4]oxazino[2,3,4-ij]quinoline-6-carboxamide], the IC50 was determined as 920 nM. To `O=C(NCc1ccc(Cl)cc1)c1cn2c3c(cc(CN4CCOCC4)cc3c1=O)OC(CN(CCO)CCO)C2` (centres unmarked) [Example 9, 2-{[bis(2-Hydroxyethyl)amino]methyl}-N-(4-chlorobenzyl)-9-(4-morpholinylmethyl)-7-oxo-2,3-dihydro-7H-[1,4]oxazino[2,3,4-ij]quinoline-6-carboxamide] belongs 590 nM. To `O=C(NCc1ccc(Cl)cc1)c1cn2c3c(cc(CN4CCOCC4)cc3c1=O)OC(CSCC(O)CO)C2` (centres unmarked) [Example 19, N-(4-Chlorobenzyl)-2-{[(2,3-dihydroxypropyl)sulfanyl]methyl}-9-(4-morpholinylmethyl)-7-oxo-2,3-dihydro-7H-[1,4]oxazino[2,3,4-ij]quinoline-6-carboxamide] belongs 570 nM; to `O=C(NCc1ccc(Cl)cc1)c1cn2c3c(cc(CN4CCOCC4)cc3c1=O)OC(CO)C2` (single isomer, unassigned) [Example 21, N-(4-Chlorobenzyl)-2-(R or S)-(hydroxymethyl)-9-(4-morpholinylmethyl)-7-oxo-2,3-dihydro-7H-[1,4]oxazino[2,3,4-ij]quinoline-6-carboxamide], 670 nM.

Source of the values: patent US6673793B2, “Oxazinoquinolones useful for the treatment of viral infections” (Pharmacia & Upjohn Co., priority 2000, dated 2004).
